Among the data in US12371428B2 (Exelixis, Inc., priority 2019, dated 2025) are IC50 values, retold here.

The structures appear in SMILES notation.

For test [1], the target named is Human MET (residues 956-1390) (Homo sapiens (Human), UniProt P08581). Nature of the test: Human Met kinase assay, HTRF KinEase (Example D-2). The format is biochemical. The settings on record: protocol of Example D-2 (other compounds); read-out: c-Met IC50. The gist of the method:
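IC50 values come from a 4-parameter logistic fit of the […] fluorescence ratio, set between DMSO (100%) and reference compound at 1 μM (0%). Reactions held MET 956-1390 at 0.1 ng/well, ATP at Km, biotinylated peptide, 5 mM MgCl2, 1 mM MnCl2, 1 mM DTT and 3% DMSO, and ran 40 min at room temperature before streptavidin-XL665/Eu-antibody detection.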
Background: TR-FRET usually uses a lanthanide donor and a delayed reading to cut background.

For test [2], the target named is Met (phospho-Met, HGF-stimulated PC-3 prostate cancer cells) (Homo sapiens (Human), UniProt P08581). The experiment in a line: Met autophosphorylation ELISA in PC-3 cells (Example F). The format is cell-based. The settings on record: cellular activity; Met autophosphorylation ELISA in PC-3 cells; read-out: c-Met IC50. The method in brief:
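Serum-starved (3 h) PC-3 cells were treated 1 h with compounds (8-point curve, 0.3% DMSO), then stimulated with 100 ng/mL human HGF for 10 min. Lysate phospho-Met (panTyr) was measured by sandwich ELISA, normalised to DMSO and reference-inhibitor controls. IC50 came from 4-parameter logistic fit.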
Background: An ELISA detects its analyte on a solid surface through an enzyme-linked reagent.

Test [3] has as its target Human KDR (residues 790-1356) (Homo sapiens (Human), UniProt P35968). Nature of the test: Human KDR kinase assay, HTRF KinEase (Example B-2). The format is biochemical. The settings on record: protocol of Example B-2 (other compounds). The method in brief: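 Ten compound concentrations (3% DMSO final) were pre-plated, then KDR (790-1356) with biotinylated peptide in Mg/Mn/DTT buffer was added; ATP at Km (4.0 μM) started a 40 min room-temperature reaction. Detection used Eu-TK antibody and SA-XL665 in EDTA buffer; activity normalized to DMSO and reference inhibitor, IC50 by logistic fit.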

The target of test [4] is Mer (phospho-Mer, MERTK-transfected 293A cells) (Homo sapiens (Human), UniProt Q12866). The experiment in a line: Mer autophosphorylation ELISA in transient transfected 293A cells (Example H). The settings on record: cellular activity; Mer autophosphorylation ELISA in transient transfected 293A cells. The format is cell-based. The method in brief:
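IC50 from 4-parameter logistic fit of phospho-Mer levels, quantified by ELISA against a phospho-Mer standard in lysates of MERTK-transfected 293A cells. Cells exposed 1 h to 8-point serial dilutions, serum-free, 0.3% DMSO; controls: DMSO (100%) and reference inhibitor (0%).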

Human MET (residues 956-1390), sequence (P08581 956-1390): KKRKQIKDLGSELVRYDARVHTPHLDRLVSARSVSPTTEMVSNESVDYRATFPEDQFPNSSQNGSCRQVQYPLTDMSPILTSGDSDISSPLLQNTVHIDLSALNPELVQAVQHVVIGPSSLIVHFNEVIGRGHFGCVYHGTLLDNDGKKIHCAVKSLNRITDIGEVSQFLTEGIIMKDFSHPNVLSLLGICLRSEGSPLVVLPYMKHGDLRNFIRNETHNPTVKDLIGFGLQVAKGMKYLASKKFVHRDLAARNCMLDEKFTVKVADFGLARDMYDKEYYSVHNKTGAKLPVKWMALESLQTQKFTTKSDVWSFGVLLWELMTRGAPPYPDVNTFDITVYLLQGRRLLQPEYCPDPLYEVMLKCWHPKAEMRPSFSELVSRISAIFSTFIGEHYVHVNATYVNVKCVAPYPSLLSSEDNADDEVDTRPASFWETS
Human KDR (residues 790-1356), sequence (P35968 790-1356): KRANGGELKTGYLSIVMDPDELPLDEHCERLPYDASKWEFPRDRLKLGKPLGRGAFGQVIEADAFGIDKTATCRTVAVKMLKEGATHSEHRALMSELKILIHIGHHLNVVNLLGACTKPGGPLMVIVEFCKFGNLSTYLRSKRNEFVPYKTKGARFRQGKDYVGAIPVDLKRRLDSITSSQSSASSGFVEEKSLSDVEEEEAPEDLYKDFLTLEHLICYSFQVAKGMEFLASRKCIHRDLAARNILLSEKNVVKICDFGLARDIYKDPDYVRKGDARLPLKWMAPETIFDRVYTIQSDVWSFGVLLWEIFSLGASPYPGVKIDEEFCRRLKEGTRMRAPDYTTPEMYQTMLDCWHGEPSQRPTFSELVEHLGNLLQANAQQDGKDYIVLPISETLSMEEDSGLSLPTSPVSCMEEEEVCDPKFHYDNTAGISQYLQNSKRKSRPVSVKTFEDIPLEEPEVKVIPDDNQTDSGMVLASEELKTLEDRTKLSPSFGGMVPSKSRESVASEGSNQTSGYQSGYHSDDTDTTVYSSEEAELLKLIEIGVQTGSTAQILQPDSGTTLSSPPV
Met (phospho-Met, HGF-stimulated PC-3 prostate cancer cells), sequence (P08581 25-1390): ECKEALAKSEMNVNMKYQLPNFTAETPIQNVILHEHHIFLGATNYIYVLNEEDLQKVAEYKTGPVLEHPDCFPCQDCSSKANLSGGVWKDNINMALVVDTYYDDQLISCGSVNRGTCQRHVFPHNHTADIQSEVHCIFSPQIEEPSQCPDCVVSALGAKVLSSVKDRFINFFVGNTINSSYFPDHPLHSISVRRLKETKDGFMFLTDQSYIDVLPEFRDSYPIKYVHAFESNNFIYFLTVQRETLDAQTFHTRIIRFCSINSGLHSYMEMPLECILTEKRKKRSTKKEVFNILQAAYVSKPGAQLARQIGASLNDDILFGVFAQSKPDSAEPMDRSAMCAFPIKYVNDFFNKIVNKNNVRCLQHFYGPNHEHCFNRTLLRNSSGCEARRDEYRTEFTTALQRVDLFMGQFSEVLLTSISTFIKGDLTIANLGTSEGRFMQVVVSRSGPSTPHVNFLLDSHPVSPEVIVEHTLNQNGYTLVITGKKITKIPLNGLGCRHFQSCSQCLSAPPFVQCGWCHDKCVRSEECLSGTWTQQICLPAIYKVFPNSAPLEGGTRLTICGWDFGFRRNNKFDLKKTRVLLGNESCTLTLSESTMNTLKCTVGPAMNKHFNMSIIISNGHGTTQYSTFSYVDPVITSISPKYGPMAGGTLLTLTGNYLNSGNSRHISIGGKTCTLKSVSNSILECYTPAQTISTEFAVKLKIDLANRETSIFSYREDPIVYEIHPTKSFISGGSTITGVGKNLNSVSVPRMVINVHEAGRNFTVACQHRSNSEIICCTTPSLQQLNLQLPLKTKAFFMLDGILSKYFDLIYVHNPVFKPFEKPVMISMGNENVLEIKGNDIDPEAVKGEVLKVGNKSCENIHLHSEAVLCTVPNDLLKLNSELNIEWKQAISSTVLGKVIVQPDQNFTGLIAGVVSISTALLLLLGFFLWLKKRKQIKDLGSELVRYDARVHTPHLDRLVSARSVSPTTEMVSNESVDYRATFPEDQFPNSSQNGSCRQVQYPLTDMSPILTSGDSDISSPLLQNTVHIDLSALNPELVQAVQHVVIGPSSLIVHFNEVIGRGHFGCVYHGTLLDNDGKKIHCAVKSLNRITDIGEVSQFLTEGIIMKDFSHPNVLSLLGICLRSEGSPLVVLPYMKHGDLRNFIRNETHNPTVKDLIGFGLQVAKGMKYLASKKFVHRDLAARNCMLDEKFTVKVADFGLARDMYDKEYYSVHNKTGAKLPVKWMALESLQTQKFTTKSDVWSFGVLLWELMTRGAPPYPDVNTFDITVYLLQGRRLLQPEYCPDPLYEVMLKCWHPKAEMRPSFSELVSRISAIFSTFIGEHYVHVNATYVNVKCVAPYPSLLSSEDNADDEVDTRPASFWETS
Mer (phospho-Mer, MERTK-transfected 293A cells), sequence (Q12866 21-999): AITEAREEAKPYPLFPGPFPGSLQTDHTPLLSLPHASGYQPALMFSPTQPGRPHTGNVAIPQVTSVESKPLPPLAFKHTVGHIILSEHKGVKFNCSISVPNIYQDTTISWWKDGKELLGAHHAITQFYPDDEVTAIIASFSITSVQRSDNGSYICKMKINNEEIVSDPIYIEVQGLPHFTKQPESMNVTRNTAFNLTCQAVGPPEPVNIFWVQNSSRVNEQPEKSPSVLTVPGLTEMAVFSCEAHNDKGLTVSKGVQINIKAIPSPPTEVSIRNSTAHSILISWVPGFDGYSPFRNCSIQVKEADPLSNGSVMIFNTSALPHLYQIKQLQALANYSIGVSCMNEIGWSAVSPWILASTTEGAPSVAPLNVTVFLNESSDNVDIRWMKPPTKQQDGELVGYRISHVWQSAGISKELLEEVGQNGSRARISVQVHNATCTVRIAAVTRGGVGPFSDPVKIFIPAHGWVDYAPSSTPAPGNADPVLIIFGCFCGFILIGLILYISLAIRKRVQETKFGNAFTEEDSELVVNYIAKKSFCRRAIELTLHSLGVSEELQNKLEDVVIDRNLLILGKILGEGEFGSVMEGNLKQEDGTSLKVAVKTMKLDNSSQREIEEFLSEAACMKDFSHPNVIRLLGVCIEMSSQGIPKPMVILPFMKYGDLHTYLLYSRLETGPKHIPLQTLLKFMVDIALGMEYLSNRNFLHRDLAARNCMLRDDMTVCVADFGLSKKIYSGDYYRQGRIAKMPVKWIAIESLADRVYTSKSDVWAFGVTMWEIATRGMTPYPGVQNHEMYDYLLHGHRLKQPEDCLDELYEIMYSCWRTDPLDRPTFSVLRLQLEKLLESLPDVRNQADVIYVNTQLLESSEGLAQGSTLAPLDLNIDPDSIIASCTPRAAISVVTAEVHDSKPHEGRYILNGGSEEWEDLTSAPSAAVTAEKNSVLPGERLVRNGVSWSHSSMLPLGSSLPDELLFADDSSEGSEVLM

What is called IC50 is the concentration needed to halve the response being measured. For `COc1cc2nccc(Oc3ccc(NC(=O)c4cn(CC(F)(F)F)c(C)c(-c5ccc(F)cc5)c4=O)cc3F)c2nc1OC` [Compound 74, N-[4-[(6,7-Dimethoxy-1,5-naphthyridin-4-yl)oxy]-3-fluorophenyl]-5-(4-fluorophenyl)-6-methyl-4-oxo-1-(2,2,2-trifluoroethyl)pyridine-3-carboxamide], the IC50 in test [1], in test [2], in test [3] and in test [4] was less than 100 nM throughout.
As to `COc1cc2nccc(Oc3ccc(NC(=O)c4cn(C)c(C)c(-c5ccc(F)cc5C)c4=O)cc3F)c2nc1OC` [Compound 75, N-[4-[(6,7-Dimethoxy-1,5-naphthyridin-4-yl)oxy]-3-fluorophenyl]-5-(4-fluoro-2-methylphenyl)-1,6-dimethyl-4-oxopyridine-3-carboxamide], the IC50 in test [1] is less than 100 nM; in test [2], less than 100 nM; in test [3] it was 100 to 300 nM; in test [4], less than 100 nM.
As for `CNc1c(-c2ccc(F)cc2)c(=O)c(C(=O)Nc2ccc(Oc3ccnc4cc(OC)c(OC)nc34)c(F)c2)cn1C` [Compound 76, N-[4-[(6,7-Dimethoxy-1,5-naphthyridin-4-yl)oxy]-3-fluorophenyl]-5-(4-fluorophenyl)-1-methyl-6-(methylamino)-4-oxopyridine-3-carboxamide], the IC50 in test [1], in test [2], in test [3] and in test [4] was less than 100 nM throughout.
In the case of `COc1cc2nccc(Oc3ccc(NC(=O)c4cn(C)c(C#N)c(-c5ccc(F)cc5)c4=O)cc3F)c2nc1OC` [Compound 77, 6-Cyano-N-[4-[(6,7-dimethoxy-1,5-naphthyridin-4-yl)oxy]-3-fluorophenyl]-5-(4-fluorophenyl)-1-methyl-4-oxopyridine-3-carboxamide], the concentration for half-maximal inhibition (IC50) was less than 100 nM in test [1], less than 100 nM in test [2], greater than 300 nM in test [3] and less than 100 nM in test [4].
Regarding `COc1cc2nccc(Oc3ccc(NC(=O)c4cn(C)c(OC)c(-c5ccc(F)cc5)c4=O)cc3F)c2nc1OC` [Compound 78, N-[4-[(6,7-Dimethoxy-1,5-naphthyridin-4-yl)oxy]-3-fluorophenyl]-5-(4-fluorophenyl)-6-methoxy-1-methyl-4-oxopyridine-3-carboxamide], the IC50 in test [1], in test [2], in test [3] and in test [4] was less than 100 nM in each case.
`COc1cnc2c(Oc3ccc(NC(=O)c4c(C)ncc(-c5ccc(F)cc5)c4O)cc3F)ccnc2c1` [Compound 80, N-[3-Fluoro-4-[(7-methoxy-1,5-naphthyridin-4-yl)oxy]phenyl]-5-(4-fluorophenyl)-4-hydroxy-2-methylpyridine-3-carboxamide]: the IC50 in test [1], in test [2], in test [3] and in test [4] was less than 100 nM in each case.
With `COc1cc2nccc(Oc3ccc(NC(=O)c4c(C)n(C)cc(-c5ccc(F)cc5)c4=O)cc3F)c2nc1OC` [Compound 81, N-[4-[(6,7-Dimethoxy-1,5-naphthyridin-4-yl)oxy]-3-fluorophenyl]-5-(4-fluorophenyl)-1,2-dimethyl-4-oxopyridine-3-carboxamide], the IC50 in test [1], in test [2], in test [3] and in test [4] was less than 100 nM throughout.
With `CCn1cc(-c2ccc(F)cc2)c(=O)c(C(=O)Nc2ccc(Oc3ccnc4cc(OC)c(OC)nc34)c(F)c2)c1C` [Compound 82, N-[4-[(6,7-Dimethoxy-1,5-naphthyridin-4-yl)oxy]-3-fluorophenyl]-1-ethyl-5-(4-fluorophenyl)-2-methyl-4-oxopyridine-3-carboxamide], the IC50 in test [1] is less than 100 nM; in test [2], less than 100 nM; in test [3], 100 to 300 nM; in test [4], less than 100 nM.
In the case of `COc1cnc2c(Oc3ccc(NC(=O)c4ccc(C)n(-c5ccc(F)cc5)c4=O)cc3F)ccnc2c1` [Compound 83, N-[3-Fluoro-4-[(7-methoxy-1,5-naphthyridin-4-yl)oxy]phenyl]-1-(4-fluorophenyl)-6-methyl-2-oxopyridine-3-carboxamide], the IC50 in test [1], in test [2], in test [3] and in test [4] was less than 100 nM in each case.
As to `COc1ccc2nccc(Oc3ccc(NC(=O)c4ccc(C)n(-c5ccc(F)cc5)c4=O)cc3F)c2n1` [Compound 84, N-[3-Fluoro-4-[(6-methoxy-1,5-naphthyridin-4-yl)oxy]phenyl]-1-(4-fluorophenyl)-6-methyl-2-oxopyridine-3-carboxamide], the IC50 was less than 100 nM in test [1], less than 100 nM in test [2], 100 to 300 nM in test [3] and less than 100 nM in test [4].
Take `COc1ccc2nccc(Oc3ccc(NC(=O)c4ccc(C)n(-c5ccc(F)cc5C)c4=O)cc3F)c2n1` [Compound 85, N-[3-Fluoro-4-[(6-methoxy-1,5-naphthyridin-4-yl)oxy]phenyl]-1-(4-fluoro-2-methylphenyl)-6-methyl-2-oxopyridine-3-carboxamide]: the IC50 in test [1] is 100 to 300 nM; in test [2], less than 100 nM; in test [3] it was greater than 300 nM; in test [4], less than 100 nM.
Take `COc1cc2nccc(Oc3ccc(NC(=O)c4cc(C(C)=O)c(C)n(-c5ccc(F)cc5)c4=O)cc3F)c2nc1OC` [Compound 86, 5-Acetyl-N-[4-[(6,7-dimethoxy-1,5-naphthyridin-4-yl)oxy]-3-fluorophenyl]-1-(4-fluorophenyl)-6-methyl-2-oxopyridine-3-carboxamide]: the IC50 was less than 100 nM in test [1], less than 100 nM in test [2], greater than 300 nM in test [3] and less than 100 nM in test [4].
In the case of `COc1cc2nccc(Oc3ccc(NC(=O)c4cc(C#N)c(C)n(-c5ccc(F)cc5)c4=O)cc3F)c2nc1OC` [Compound 87, 5-Cyano-N-[4-[(6,7-dimethoxy-1,5-naphthyridin-4-yl)oxy]-3-fluorophenyl]-1-(4-fluorophenyl)-6-methyl-2-oxopyridine-3-carboxamide], the IC50 in test [1] was less than 100 nM; in test [2], less than 100 nM; in test [3], greater than 300 nM; in test [4], less than 100 nM.
Regarding `COc1cc2nccc(Oc3ccc(NC(=O)c4n[nH]c(C)c(-c5ccc(F)cc5)c4=O)cc3F)c2nc1OC` [Compound 88, N-[4-[(6,7-Dimethoxy-1,5-naphthyridin-4-yl)oxy]-3-fluorophenyl]-5-(4-fluorophenyl)-6-methyl-4-oxo-1H-pyridazine-3-carboxamide], the IC50 in test [1], in test [2], in test [3] and in test [4] was less than 100 nM each time.
For `COc1ccc2nccc(Oc3ccc(NC(=O)c4n[nH]c(C)c(-c5ccc(F)cc5)c4=O)cc3F)c2n1` [Compound 89, N-[3-Fluoro-4-[(6-methoxy-1,5-naphthyridin-4-yl)oxy]phenyl]-5-(4-fluorophenyl)-6-methyl-4-oxo-1H-pyridazine-3-carboxamide], the IC50 in test [1], in test [2], in test [3] and in test [4] was less than 100 nM throughout.
